# Data published in the Kinase Knowledgebase extract (Sharma et al. 2016).
# Molecular target: ROCK1;ROCK2 (UniProt O75116)
# Assay: Inhibition of ROCK Kinase Activity
# ROCK1;ROCK2, sequence (O75116 whole entry, looked up): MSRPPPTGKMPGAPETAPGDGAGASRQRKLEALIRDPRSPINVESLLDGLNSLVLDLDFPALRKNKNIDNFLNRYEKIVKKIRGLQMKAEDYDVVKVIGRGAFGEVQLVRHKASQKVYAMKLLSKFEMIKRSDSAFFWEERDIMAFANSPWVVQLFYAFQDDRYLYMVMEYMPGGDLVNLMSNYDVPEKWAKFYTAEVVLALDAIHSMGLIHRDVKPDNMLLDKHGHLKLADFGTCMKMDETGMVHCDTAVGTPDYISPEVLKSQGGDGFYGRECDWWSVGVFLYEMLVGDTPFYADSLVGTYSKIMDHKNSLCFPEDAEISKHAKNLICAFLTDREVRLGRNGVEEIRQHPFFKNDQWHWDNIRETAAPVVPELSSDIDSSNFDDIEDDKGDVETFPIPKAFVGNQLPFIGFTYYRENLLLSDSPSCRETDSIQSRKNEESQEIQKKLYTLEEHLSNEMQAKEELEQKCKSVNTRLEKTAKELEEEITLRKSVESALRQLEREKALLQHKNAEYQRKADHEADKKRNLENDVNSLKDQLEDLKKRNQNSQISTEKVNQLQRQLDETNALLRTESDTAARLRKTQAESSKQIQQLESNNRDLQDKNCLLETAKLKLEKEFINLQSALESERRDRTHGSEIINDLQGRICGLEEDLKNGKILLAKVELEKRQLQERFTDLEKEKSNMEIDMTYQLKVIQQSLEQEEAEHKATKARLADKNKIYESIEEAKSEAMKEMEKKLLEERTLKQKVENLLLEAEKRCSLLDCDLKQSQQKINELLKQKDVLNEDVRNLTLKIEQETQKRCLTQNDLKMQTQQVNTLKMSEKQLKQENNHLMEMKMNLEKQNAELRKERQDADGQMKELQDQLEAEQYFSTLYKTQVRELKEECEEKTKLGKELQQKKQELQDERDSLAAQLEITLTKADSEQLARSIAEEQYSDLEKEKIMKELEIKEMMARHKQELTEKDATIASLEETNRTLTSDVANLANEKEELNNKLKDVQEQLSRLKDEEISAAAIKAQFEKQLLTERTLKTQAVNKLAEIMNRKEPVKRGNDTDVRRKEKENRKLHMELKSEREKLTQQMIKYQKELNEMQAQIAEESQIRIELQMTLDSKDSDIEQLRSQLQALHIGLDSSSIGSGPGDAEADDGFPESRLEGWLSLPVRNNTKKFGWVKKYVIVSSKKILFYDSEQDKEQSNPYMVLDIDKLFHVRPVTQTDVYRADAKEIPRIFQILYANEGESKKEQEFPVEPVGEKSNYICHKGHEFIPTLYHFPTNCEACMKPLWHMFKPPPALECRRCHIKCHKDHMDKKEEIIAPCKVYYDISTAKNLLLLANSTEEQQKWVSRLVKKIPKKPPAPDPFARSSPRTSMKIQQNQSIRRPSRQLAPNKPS
row,Structure (SMILES),Ki
1,O=C(COc1ccccc1)Nc1ccc2c(c1)C(=O)NC2=O,≤ 2000 nM
2,O=C(CSc1ccc(F)cc1)Nc1ccc2c(c1)C(=O)NC2=O,≤ 2000 nM
3,Cc1cccc(NCC(=O)Nc2ccc3c(c2)C(=O)NC3=O)c1,≤ 2000 nM
4,O=C(Cc1cc2c(cc1Cl)OCO2)Nc1ccc2c(c1)C(=O)NC2=O,≤ 2000 nM
5,COc1ccc(CC(=O)Nc2ccc3c(c2)C(=O)NC3=O)cc1,≤ 2000 nM
6,O=C(CNc1cccc(OCc2ccccc2)c1)Nc1ccc2c(c1)C(=O)NC2=O,≤ 2000 nM
7,O=C(CSc1ccccc1)Nc1ccc2c(c1)C(=O)NC2=O,≤ 2000 nM
8,O=C(Cc1ccc(F)cc1)Nc1ccc2c(c1)C(=O)NC2=O,≤ 2000 nM
9,O=C(CSc1cccc(O)c1)Nc1ccc2c(c1)C(=O)NC2=O,≤ 2000 nM
10,O=C(Cc1ccc2c(c1)OCO2)Nc1ccc2c(c1)C(=O)NC2=O,≤ 2000 nM
11,O=C(Cc1cccc(O)c1)Nc1ccc2c(c1)C(=O)NC2=O,≤ 2000 nM
12,CC(Oc1ccccc1)C(=O)Nc1ccc2c(c1)C(=O)NC2=O (stereo not given),≤ 2000 nM
13,O=C(Cc1cc(F)cc(F)c1F)Nc1ccc2c(c1)C(=O)NC2=O,≤ 2000 nM
14,O=C(Cc1cc(F)c(Cl)cc1Cl)Nc1ccc2c(c1)C(=O)NC2=O,≤ 2000 nM
15,O=C(CNc1cccc(F)c1)Nc1ccc2c(c1)C(=O)NC2=O,≤ 2000 nM
16,O=C(Cc1cccc(C(F)(F)F)c1)Nc1ccc2c(c1)C(=O)NC2=O,≤ 2000 nM
17,O=C(Cc1cc(F)ccc1F)Nc1ccc2c(c1)C(=O)NC2=O,≤ 2000 nM
18,Cc1cc(C)cc(SCC(=O)Nc2ccc3c(c2)C(=O)NC3=O)c1,≤ 2000 nM
19,O=C(CSc1ccccc1F)Nc1ccc2c(c1)C(=O)NC2=O,≤ 2000 nM
20,Cc1ccc(SCC(=O)Nc2ccc3c(c2)C(=O)NC3=O)c(C)c1,≤ 2000 nM
21,O=C(CSc1ccccc1C(F)(F)F)Nc1ccc2c(c1)C(=O)NC2=O,≤ 2000 nM
22,Cc1ccc(OCC(=O)Nc2ccc3c(c2)C(=O)NC3=O)cc1,≤ 2000 nM
23,O=C(CSc1cccc(Cl)c1Cl)Nc1ccc2c(c1)C(=O)NC2=O,≤ 2000 nM
24,O=C(Cc1cc(Cl)ccc1F)Nc1ccc2c(c1)C(=O)NC2=O,≤ 2000 nM
25,O=C(Cc1cccc(Cl)c1)Nc1ccc2c(c1)C(=O)NC2=O,≤ 2000 nM
26,O=C(Cc1ccc(F)cc1Cl)Nc1ccc2c(c1)C(=O)NC2=O,≤ 2000 nM
27,Cc1ccccc1NCC(=O)Nc1ccc2c(c1)C(=O)NC2=O,≤ 2000 nM
28,O=C(Cc1ccccc1Cl)Nc1ccc2c(c1)C(=O)NC2=O,≤ 2000 nM

row,Structure (SMILES),Ki
1,O=C(CNc1ccc(F)c(Cl)c1)Nc1ccc2c(c1)C(=O)NC2=O,≤ 2000 nM
2,O=C(Cc1cccc(C(F)(F)F)c1F)Nc1ccc2c(c1)C(=O)NC2=O,≤ 2000 nM
3,O=C(CSc1ccc(Cl)cc1Cl)Nc1ccc2c(c1)C(=O)NC2=O,≤ 2000 nM
4,O=C(Cc1ccccc1F)Nc1ccc2c(c1)C(=O)NC2=O,≤ 2000 nM
5,O=C(Cc1cccc(F)c1)Nc1ccc2c(c1)C(=O)NC2=O,≤ 2000 nM
6,Cc1ccc(SCC(=O)Nc2ccc3c(c2)C(=O)NC3=O)cc1,≤ 2000 nM
7,COc1cccc(OCC(=O)Nc2ccc3c(c2)C(=O)NC3=O)c1,≤ 2000 nM
8,O=C(CNc1cccc(Cl)c1)Nc1ccc2c(c1)C(=O)NC2=O,≤ 2000 nM
9,O=C(CSc1cccc2ccccc12)Nc1ccc2c(c1)C(=O)NC2=O,≤ 2000 nM
10,O=C(CSc1ccc(Cl)c(Cl)c1)Nc1ccc2c(c1)C(=O)NC2=O,≤ 2000 nM
11,O=C(CNc1cccc2[nH]ccc12)Nc1ccc2c(c1)C(=O)NC2=O,≤ 2000 nM
12,O=C(Cc1cccc(F)c1F)Nc1ccc2c(c1)C(=O)NC2=O,≤ 2000 nM
13,Cc1ccc(NCC(=O)Nc2ccc3c(c2)C(=O)NC3=O)c(C)c1,≤ 2000 nM
14,O=C(COc1ccc(Cl)cc1)Nc1ccc2c(c1)C(=O)NC2=O,≤ 2000 nM
15,O=C(CSc1ccccc1Cl)Nc1ccc2c(c1)C(=O)NC2=O,≤ 2000 nM
16,O=C(CSc1cccc(Br)c1)Nc1ccc2c(c1)C(=O)NC2=O,≤ 2000 nM
17,O=C(CSc1ccc(F)cc1F)Nc1ccc2c(c1)C(=O)NC2=O,≤ 2000 nM
18,O=C(CSc1cccc(Cl)c1)Nc1ccc2c(c1)C(=O)NC2=O,≤ 2000 nM
19,O=C(CNc1cccc2c1CCCC2)Nc1ccc2c(c1)C(=O)NC2=O,≤ 2000 nM
20,O=C(Cc1ccc(F)cc1F)Nc1ccc2c(c1)C(=O)NC2=O,≤ 2000 nM
21,O=C(CCc1ccccc1)Nc1ccc2c(c1)C(=O)NC2=O,≤ 2000 nM
22,O=C(Cc1ccc(Cl)c(Cl)c1)Nc1ccc2c(c1)C(=O)NC2=O,≤ 2000 nM
23,O=C(CSc1ccc(F)c(Cl)c1)Nc1ccc2c(c1)C(=O)NC2=O,≤ 2000 nM
24,COc1cccc(NCC(=O)Nc2ccc3c(c2)C(=O)NC3=O)c1,≤ 2000 nM
25,COc1ccc(NCC(=O)Nc2ccc3c(c2)C(=O)NC3=O)cc1Cl,≤ 2000 nM
26,O=C(Cc1ccc(Cl)cc1)Nc1ccc2c(c1)C(=O)NC2=O,≤ 2000 nM
27,COc1cccc(CC(=O)Nc2ccc3c(c2)C(=O)NC3=O)c1,≤ 2000 nM
